Source: patent US4301169A, “Novel imidazole compound and anti-depressing agent containing the same” (Eisai Co., Ltd., priority 1978, dated 1981)
Like-named read-outs stand apart in the source and are kept apart here.

What was measured:
[1] = Acute toxicity (lethal action); details: mouse, in vivo, mice, hydrochloride, read-out: Acute Toxicity (Lethal Ratio %)
Description: (§1) Each test compound is used in the form of a hydrochloride.
The test compound is administered in a dose of 100 or 400 mg/kg to mice for examining the lethal action. Five mice are used for each dose level. The lethal ratio is measured 24 hours after oral administration.

[2] = system: spontaneous motility; assay: Influence on spontaneous motility; type: in vivo, male ddy mice; details: Mus musculus, 1 h; 40 mg/kg oral, hydrochloride, 60 minutes before start; 60 minutes measurement; * = significant at P <0.05; read-out: Relative Spontaneous Motility (%) to Control
Description: as §1
(2) Influence on spontaneous motility:
The spontaneous motility is examined according to the method of T. H. Sevensson (Psychopharmacologia, 14, 157, 1969). Three ddy male mice having a body weight of 20 to 25 g are put in a black observation box of an acrylic resin as one group, and the amount of the spontaneous motility during a period of 60 minutes is measured and recorded by using Animex (manufactured by Farrod Co., Sweden).
Sixty minutes before the start of the measurement of the spontaneous motility, the test compound is orally administered in a dose of 40 mg/kg. The control animal is treated with physiological saline solution. Five groups (15 mice) are used for each dose level.
*Significant increase of the spontaneous motility at P <0.05

[3] = system: reserpine-induced hypothermia; assay: Anti-reserpine activity (antagonism against reserpine-induced hypothermia); type: in vivo, male ddy mice; details: Mus musculus; minimum dose necessary for increasing body temperature of reserpine-treated mice significantly (P < 0.05) over control; reserpine 2.5 mg/kg i.p., test compound (hydrochloride) oral 18 hours later
Description: as §1
(1) Anti-reserpine activity:
The antagonism against the reserpine-induced hypothermia is examined according to the method of B. M. Askew (Life Science, 4, 725-730, 1963).
Male ddy mice having a body weight of 19 to 25 g are used as the test animal. Reserpine is injected intraperitoneally in dose of 2.5 mg/kg, and 18 hours after the injection, the test compound is orally administered and the change of the body temperature with the lapse of time is examined by using a thermistor type thermometer (Model MGA III manufactured by Shibaura Denshi).
The effect of each compound is examined with 2 to 4 dose levels.
Each of the test compound is used in the form of an aqueous solution. The control animal is treated with physiological saline solution. Four animals having a body temperature of 24° to 25° C., 18 hours after the injection of reserpine, are used for each dose. The experiment is carried out in a room at 23° to 25° C.
^(a) The minimum dose necessary for increasing the body temperature o

[4] = system: spontaneous motility; assay: Influence on spontaneous motility; type: in vivo, male ddy mice; details: Mus musculus, po, 1 h; 10 mg/Kg P.O. (footnote b), hydrochloride; * = significant at P <0.05; read-out: Relative Spontaneous Motility (%) to Control
[5] = system: dopamine and its metabolites in the mouse brain; assay: Effect on the level of dopamine and its metabolites in the mouse brain; type: in vivo
From the text: Furthermore, we investigated the effect of the compound of the present invention (compound H and I) on the level of dopamine and its metabolites in the mouse brain. […] This means that the compounds of the invention antagonize against the reserpine-induced depression in a way completely different from the known tricyclic antidepressant.

SMILES	mortality at 24 h ([1]; 100 mg/Kg oral) [%]	mortality at 24 h ([1]; 400 mg/Kg oral) [%]	response vs control in vivo at 40 mg/kg [2] [%]	minimal effective dose [3] [mg/kg]	response vs control in vivo at 10 mg/kg [4] [%]	dopamine turnover in the brain [5]
Cc1ccc(-n2ccnc2C)cc1C [A, 1-(3,4-Dimethylphenyl)-2-methylimidazole]	0	100	82 ± 6	2.5		
CCc1nccn1-c1ccc(Cl)c(Cl)c1 [C, 1-(3,4-Dichlorophenyl)-2-ethylimidazole]	0	20	99 ± 7	1.25 to 2.5		
Cc1nccn1-c1ccc(N)cc1 [K, 1-(4-Aminophenyl)-2-methylimidazole]	40	80		1.25	350 ± 31	
CCCCNc1ccc(-n2ccnc2C)cc1 [J, 1-(4-n-Butylaminophenyl)-2-methylimidazole]	0	60	543 ± 57	5		
Cc1ccc(C(=O)Nc2ccc(-n3ccnc3C)cc2)cc1 [Q, 1-[4-(4-Methylbenzoylamino)phenyl]-2-methylimidazole]	0	40	447 ± 51	10		
Cc1cn(-c2ccc(N)cc2)c(C)n1 [D, 1-(4-Aminophenyl)-2,4-dimethylimidazole]	0	60	473 ± 48	5		
Cc1nccn1-c1ccc(NC(=O)c2ccc(Cl)cc2)cc1 [L, 1-[4-(4-Chlorobenzoylamino)phenyl]-2-methylimidazole]	0	0	367 ± 30	10		
Cc1nccn1-c1ccc(N)c(C(F)(F)F)c1 [E, 1-(3-Trifluoromethyl-4-aminophenyl)-2-methylimidazole]	0	0	70 ± 8	5		
CC(C)c1nccn1-c1ccc(NC(=O)c2ccc(Cl)cc2)cc1 [P, 1-[4-(4-Chlorobenzoylamino)phenyl]-2-isopropylimidazole]	0	0	92 ± 14	10		
Cc1nccn1-c1cccc(N)c1 [H, 1-(3-Aminophenyl)-2-methylimidazole]	0	0	83 ± 3	2.5		reduce dopamine turnover in the brain
CCc1nccn1-c1ccc(N)cc1 [F, 1-(4-Aminophenyl)-2-ethylimidazole]	0	60	382 ± 25	1.25		
Cc1ccc(-n2ccnc2C)cc1N [I, 1-(3-Amino-4-methylphenyl)-2-methylimidazole]	0	20	58 ± 8	5		reduce dopamine turnover in the brain
Cc1nccn1-c1ccc(NC(=O)c2ccc(F)cc2)cc1 [M, 1-[4-(4-Fluorobenzoylamino)phenyl]-2-methylimidazole]	0	0	229 ± 30	10		
Cc1nccn1-c1ccc(N(C)C)cc1 [B, 1-(4-Dimethylaminophenyl)-2-methylimidazole]	0	80	526 ± 24	2.5		
CCc1nccn1-c1ccc(NC(=O)c2ccc(Cl)cc2)cc1 [N, 1-[4-(4-Chlorobenzoylamino)phenyl]-2-ethylimidazole]	0	0	207 ± 51	2.5		
Cc1nccn1-c1ccc(N)cc1Cl [G, 1-(2-Chloro-4-aminophenyl)-2-methylimidazole]	0	40	254 ± 68	10		
CCc1nccn1-c1ccc(NC(=O)c2ccc(C)cc2)cc1 [O, 1-[4-(4-Methylbenzoylamino)phenyl]-2-ethylimidazole]	0	20	287 ± 23	5		
